Like-named read-outs stand apart in the source and are kept apart here.
Columns and labels:
[1] = test system: Coronary Blood Flow (descending branch of the left coronary artery); test: Coronary dilating activity: coronary blood flow in narcotized dogs with open thoracic cavity; format: in vivo; conditions: for ED (50% increase): Canis lupus familiaris, read-out: Dose increasing coronary blood flow by 50%
Procedure: The experiments have been conducted on narcotized dogs with the open thoracic cavity. The blood flow was registered in the descending branch of the left coronary artery.
The blood flow was determined before and after the injection of the proposed compounds. The proposed compound was introduced in a single dose, intravenously, followed by calculating the increase in the coronary blood flow in percent.

[2] = test system: Arterial Pressure; test: Hypotensive activity in spontaneously-hypertensive rats; format: in vivo, spontaneously-hypertensive rats (SHR) of Okamoto-Aoki line; conditions: SHR, single 10 mg/kg dose into the stomach; for Hypotensive activity: Table 2
Procedure: The experiments were conducted on spontaneously-hypertensive rats (SHR) of Okamoto-Aoki line.

[3] = test system: coronary dilating activity; conditions: clinical practice, in words; cited from earlier work
[4] = large doses, in words; cited from earlier work
[5] = Acute toxicity in mice; conditions: mouse, in vivo, ip
[6] = test system: systemic arterial pressure and cardiac output; test: Systemic arterial pressure and cardiac output in narcotized dogs; format: in vivo; conditions: 0.01-0.1 mg/kg, intravenous
[7] = Solubility; format: physicochemical
[8] = Chemical stability; format: physicochemical
[9] = in vivo; conditions: mouse, ip
[10] = test system: mongrel white mice; test: Acute toxicity in mice; conditions: ratio versus nifedipin and papaverine
[11] = 0.1 mg/kg, single dose, intravenous, narcotized dogs
[12] = 0.5 mg/kg, single dose, intravenous, narcotized dogs
[13] = 0.01 mg/kg, single dose, intravenous, narcotized dogs

For COc1ccc(Cc2nccc3cc(OC)c(OC)cc23)cc1OC [Papaverine, reference compound], the Duration of effect [1, 11] was 5 min, the “Increase of coronary blood flow” value [1, 11] was 20% and the Duration of effect [1, 12] was 7 min. The “Increase of coronary blood flow” value [1, 12] was 30%, the ED (50% increase) ([1]; iv) was 0.9 mg/kg and the “Duration of hypotensive effect” value [2] was 3 h. The “Effect on arterial pressure (in words)” value [2] was “insignificant effect on arterial pressure”, the “Reduction of (systolic) arterial pressure” value [2] was 5% and the Hypotensive activity [2] was 5. The Coronary dilating activity [3] was “low coronary dilating activity”, the Toxicity [4] was “rather high” and the LD50 at 336 h [5] was 91 mg/kg.
In the case of COC(=O)C1=C(C)NC(=O)NC1c1ccccc1SC(F)F (stereo not shown) [Proposed compound, 2-oxo-4-(2'-difluoromethylthiophenyl)-5-methoxycarbonyl-6-methyl-1,2,3,4-tetrahydropyrimidine], the “Increase of coronary blood flow” value ([1]; 0.001 mg/kg, single dose, intravenous, narcotized dogs) is reported as 19%, the Duration of effect [1, 13] is reported as 35 min and the “Increase of coronary blood flow” value [1, 13] is reported as 79%. For the same molecule, the Duration of effect [1, 11] was 60 min, the “Increase of coronary blood flow” value [1, 11] was 107% and the ED (50% increase) ([1]; single dose, intravenous, narcotized dogs) was 0.006 mg/kg. The “Duration of effect compared with nifedipin” value ([1]; ratio versus nifedipin) was 1.7 times, the “Strong and prolonged vasodilating effect with relation to coronary vessels, compared with nifedipin” value ([1]; ratio versus nifedipin (summary)) was 1.7 times and the “Coronary dilating activity compared with papaverine, by doses” value ([1]; ratio versus papaverine) was 150 times. For the same molecule, the “Duration of effect compared with papaverine” value ([1]; ratio versus papaverine) was “over 10 times”, the “Strong and prolonged vasodilating effect with relation to coronary vessels, compared with papaverine” value ([1]; ratio versus papaverine (summary)) was “about 10 times” and the “Coronary dilating effect compared with nifedipin” value ([1]; versus nifedipin, in words) was “approximately equal in activity to nifedipin”. The “Change of systemic arterial pressure and cardiac output” value [6] was “did not change the systemic arterial pressure and the cardiac output”, the “Duration of hypotensive effect” value [2] was 6 h and the “Effect on arterial pressure (in words)” value [2] was “no substantial effect on arterial pressure”. The “Reduction of (systolic) arterial pressure” value [2] was 8%, the Hypotensive activity [2] was 8 and the “Solubility in organic solvents” value ([7]; ethyl alcohol, acetone, chloroform and other organic solvents) was “comparatively easily-soluble in ethyl alcohol, acetone, chloroform and other organic solvents”. For the same molecule, the Solubility in water ([7]; water) was “insoluble in water”, the Chemical stability [8] was “chemically stable” and the LD50 at 336 h [9] was > 2000 mg/kg. The “Toxicity, times lower than that of nifedipin and papaverine” value [10] was 10-20 times.

From patent publication US4738965A, “2-oxo-4-(2'-difl uoromethylthiophenyl)-5-methoxycarbonyl-6-methyl-1,2,3,4-tetrahydropyrimi dine” (Institut Organischskogo Sinteza Akademii Nauk SSR, priority 1987, dated 1988)
